# Measured values from ChEMBL document CHEMBL1201862, “PubChem BioAssay data set” (2004).
# Activity calls are given as the source filed them.
# Legend:
# [1] = molecular target: T1, Mannose-6-phosphate isomerase (Homo sapiens, UniProt P34949); experiment: inhibitors of human PMI, primary screen, biochemical, fluorescence intensity, coupled assay (AID 1209)
# T1 sequence (P34949 whole entry): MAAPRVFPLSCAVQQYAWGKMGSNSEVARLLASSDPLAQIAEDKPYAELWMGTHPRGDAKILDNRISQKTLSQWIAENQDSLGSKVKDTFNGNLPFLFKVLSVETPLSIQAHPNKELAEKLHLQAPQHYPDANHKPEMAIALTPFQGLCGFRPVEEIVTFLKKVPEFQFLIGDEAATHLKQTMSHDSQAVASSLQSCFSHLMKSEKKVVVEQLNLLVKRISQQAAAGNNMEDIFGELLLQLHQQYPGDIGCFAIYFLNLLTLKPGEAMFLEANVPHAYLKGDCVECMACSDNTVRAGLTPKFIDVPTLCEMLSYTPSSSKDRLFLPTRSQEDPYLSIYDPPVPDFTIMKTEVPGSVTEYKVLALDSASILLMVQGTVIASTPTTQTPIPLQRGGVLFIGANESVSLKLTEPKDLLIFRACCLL
# [2] = THP-1 cell cytotoxicity, dose response, cytotoxicity control for Vif-APOBEC3G degradation inhibitor project, THP-1 cells (AID 1117359); type: functional; details: Human immunodeficiency virus 1, THP-1
# [3] = molecular target: T1, Mannose-6-phosphate isomerase; experiment: human PMI inhibitors, high substrate, primary screen, biochemical, fluorescence intensity, high mannose 6-phosphate (AID 1220)
# [4] = test system: Streptococcus sp. 'group A'; experiment: growth inhibition of control SK(-) GAS strain, dose response, counter-screen for streptokinase expression inhibitor project, luminescence, kanamycin, BacTiterGlo, confirmation (AID 1900); type: functional, organism-based
# [5] = test system: Streptococcus; experiment: Group A Streptococcus viability loss, dose response, counter-screen for streptokinase expression inhibitor project, luminescence, BacTiterGlo (AID 1915); type: functional, organism-based;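 note: potency for reduction of bacterial viability or growth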
# [6] = molecular target: Sphingosine 1-phosphate receptor 2 (Homo sapiens, UniProt O95136); experiment: Dose Response Cell Based Assay for Antagonists of the S1P2 Receptor. [Related pubchem assays: 856, 736 ]; type: functional
# Sequence of Sphingosine 1-phosphate receptor 2 (O95136 whole entry): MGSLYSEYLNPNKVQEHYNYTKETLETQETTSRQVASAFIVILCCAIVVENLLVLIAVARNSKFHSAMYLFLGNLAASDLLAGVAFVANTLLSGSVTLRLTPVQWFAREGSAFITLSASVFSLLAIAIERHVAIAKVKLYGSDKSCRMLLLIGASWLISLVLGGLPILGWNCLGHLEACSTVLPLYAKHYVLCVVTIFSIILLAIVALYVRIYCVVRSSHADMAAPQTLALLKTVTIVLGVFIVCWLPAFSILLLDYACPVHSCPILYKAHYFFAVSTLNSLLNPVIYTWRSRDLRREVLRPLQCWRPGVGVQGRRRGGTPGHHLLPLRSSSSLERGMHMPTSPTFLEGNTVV
# [7] = cytotoxicity toward NIH3T3 fibroblasts, dose response, counter-screen, cell-based, ATP luminescence, mouse fibroblasts (AID 2010); type: functional;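 note: cells exposed to compound for about 90 hours before reading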
# [8] = inhibitors of intracellular T. cruzi replication, confirmation, NIH3T3 host cells, beta-gal luminescence (AID 2044); type: functional, cell-based;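 note: intracellular parasites grown in NIH/3T3 mouse fibroblasts as host cells; luminescent beta-galactosidase reporter signal from transgenic T. cruzi replicating inside host cells; inhibitors lower the luminescence signal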
# [9] = test system: H4; experiment: Luminescence Cell-Based Dose Response HTS to Identify Activators of 5'UTR Stem-Loop Driven Prion Protein mRNA Translation in H4 Neuroglioblastoma Cells. [Related pubchem assays: 1829 (Project Summary), 1814 (Primary HTS)]; type: functional; details: Homo sapiens
# [10] = Luminescence Cell-Based Dose Response HTS to Identify Activators of Luciferase Translation or Activity in H4 […] Cells. [Related pubchem assays: 1829 (Project Summary), 1814 (Primary HTS)]; type: functional
# [11] = Luminescence Cell-Based Dose Response to Identify Activators of Luciferase Translation or Activity in H4-C Neuroglioblastoma Cells. [Related pubchem assays: 1829 (Project Summary), 1814 (Primary HTS)]; type: functional
# [12] = Luminescence Cell-Based Dose Confirmation to Identify Activators of 5'UTR Stem-Loop Driven Alpha-Synuclein mRNA Translation in H4 Neuroglioblastoma Cells. [Related pubchem assays: 1829 (Project Summary), 1814 (Primary HTS)]; type: functional
# [13] = Luminescence Cell-Based Dose Response to Identify Activators of 5'UTR Stem-Loop Driven Prion Protein mRNA Translation in H4-C Neuroglioblastoma Cells. [Related pubchem assays: 1829 (Project Summary), 1814 (Primary HTS)]; type: functional
# [14] = molecular target: T2, Apoptotic protease-activating factor 1 (Homo sapiens, UniProt O14727); type: functional
# T2 sequence (O14727 whole entry): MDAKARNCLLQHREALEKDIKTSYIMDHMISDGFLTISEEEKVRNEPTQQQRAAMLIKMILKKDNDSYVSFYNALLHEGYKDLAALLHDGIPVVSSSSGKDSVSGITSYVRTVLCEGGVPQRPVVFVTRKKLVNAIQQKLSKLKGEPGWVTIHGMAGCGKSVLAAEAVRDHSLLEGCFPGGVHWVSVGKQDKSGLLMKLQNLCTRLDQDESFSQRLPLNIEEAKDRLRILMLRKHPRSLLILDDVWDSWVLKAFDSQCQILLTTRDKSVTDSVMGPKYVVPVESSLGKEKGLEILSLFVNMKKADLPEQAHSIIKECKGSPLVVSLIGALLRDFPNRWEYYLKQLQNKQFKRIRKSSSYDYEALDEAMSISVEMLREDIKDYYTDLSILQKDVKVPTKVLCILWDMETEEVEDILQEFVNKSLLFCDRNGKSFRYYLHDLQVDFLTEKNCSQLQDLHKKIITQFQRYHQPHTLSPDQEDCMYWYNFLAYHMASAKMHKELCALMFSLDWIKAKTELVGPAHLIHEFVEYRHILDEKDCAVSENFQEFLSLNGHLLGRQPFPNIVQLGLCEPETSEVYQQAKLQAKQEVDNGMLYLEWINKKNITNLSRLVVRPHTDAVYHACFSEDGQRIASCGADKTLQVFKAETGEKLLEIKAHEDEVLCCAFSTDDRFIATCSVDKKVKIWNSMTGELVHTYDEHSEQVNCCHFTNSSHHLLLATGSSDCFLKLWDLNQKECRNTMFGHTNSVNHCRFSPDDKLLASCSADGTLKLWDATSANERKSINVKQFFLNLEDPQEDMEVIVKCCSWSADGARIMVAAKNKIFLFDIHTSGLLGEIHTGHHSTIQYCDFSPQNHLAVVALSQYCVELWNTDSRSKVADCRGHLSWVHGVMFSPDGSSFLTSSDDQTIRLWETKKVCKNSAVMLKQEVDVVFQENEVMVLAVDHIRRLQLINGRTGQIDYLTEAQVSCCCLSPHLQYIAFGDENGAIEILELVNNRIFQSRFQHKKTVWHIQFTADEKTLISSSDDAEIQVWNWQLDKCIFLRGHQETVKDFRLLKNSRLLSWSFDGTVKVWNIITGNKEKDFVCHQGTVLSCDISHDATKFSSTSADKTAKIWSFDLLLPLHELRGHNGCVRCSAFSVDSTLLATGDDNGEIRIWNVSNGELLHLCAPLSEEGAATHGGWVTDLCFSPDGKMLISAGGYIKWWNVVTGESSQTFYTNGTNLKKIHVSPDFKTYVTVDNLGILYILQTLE
# [15] = molecular target: T3, Aryl hydrocarbon receptor (Homo sapiens, UniProt P35869); experiment: Luminescence-based cell-based high throughput dose response assay for activators of the Aryl Hydrocarbon Receptor (AHR). [Related pubchem assays: 2796 (Primary screen (AHR activators in singlicate)), 2845 (Confirmation screen (AHR activators in triplicate)), 434939 (Counterscreen (PXR activators in triplicate)), 2804 (Summary (AHR activators))]; type: ADME
# T3 sequence (P35869 whole entry): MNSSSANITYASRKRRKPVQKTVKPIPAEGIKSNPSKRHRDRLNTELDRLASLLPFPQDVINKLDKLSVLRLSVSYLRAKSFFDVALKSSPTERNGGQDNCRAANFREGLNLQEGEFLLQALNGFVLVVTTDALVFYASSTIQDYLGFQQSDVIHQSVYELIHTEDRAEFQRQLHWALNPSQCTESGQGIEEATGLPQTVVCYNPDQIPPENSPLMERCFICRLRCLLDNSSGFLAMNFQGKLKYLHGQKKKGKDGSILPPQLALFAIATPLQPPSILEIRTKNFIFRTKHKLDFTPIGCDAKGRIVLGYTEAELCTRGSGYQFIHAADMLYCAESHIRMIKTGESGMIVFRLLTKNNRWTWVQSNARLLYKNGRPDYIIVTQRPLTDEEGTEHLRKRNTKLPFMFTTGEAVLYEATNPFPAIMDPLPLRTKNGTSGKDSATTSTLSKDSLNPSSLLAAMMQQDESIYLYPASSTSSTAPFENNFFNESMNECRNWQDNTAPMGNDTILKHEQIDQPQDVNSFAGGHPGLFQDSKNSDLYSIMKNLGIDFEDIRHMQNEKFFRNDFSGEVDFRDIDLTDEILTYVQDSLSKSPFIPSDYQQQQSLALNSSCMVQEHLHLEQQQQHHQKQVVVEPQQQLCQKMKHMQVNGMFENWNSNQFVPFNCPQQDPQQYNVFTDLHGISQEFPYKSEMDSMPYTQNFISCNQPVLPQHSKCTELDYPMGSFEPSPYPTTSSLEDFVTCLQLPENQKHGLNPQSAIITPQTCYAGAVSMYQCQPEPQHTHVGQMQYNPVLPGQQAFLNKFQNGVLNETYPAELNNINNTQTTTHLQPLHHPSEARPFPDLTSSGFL
# [16] = molecular target: E3 ubiquitin-protein ligase Mdm2 (Homo sapiens, UniProt Q00987); experiment: enhancers of MDM2-luciferase reporter signal, concentration-effect titration, project on inhibitors of MDM2 ubiquitin ligase, cellular assay, luminescent readout, 384-well plate format (AID 1394); type: functional;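 note: MDM2 E3 inhibitors raise luminescence so EC50 is for signal enhancement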
# Sequence of E3 ubiquitin-protein ligase Mdm2 (Q00987 whole entry): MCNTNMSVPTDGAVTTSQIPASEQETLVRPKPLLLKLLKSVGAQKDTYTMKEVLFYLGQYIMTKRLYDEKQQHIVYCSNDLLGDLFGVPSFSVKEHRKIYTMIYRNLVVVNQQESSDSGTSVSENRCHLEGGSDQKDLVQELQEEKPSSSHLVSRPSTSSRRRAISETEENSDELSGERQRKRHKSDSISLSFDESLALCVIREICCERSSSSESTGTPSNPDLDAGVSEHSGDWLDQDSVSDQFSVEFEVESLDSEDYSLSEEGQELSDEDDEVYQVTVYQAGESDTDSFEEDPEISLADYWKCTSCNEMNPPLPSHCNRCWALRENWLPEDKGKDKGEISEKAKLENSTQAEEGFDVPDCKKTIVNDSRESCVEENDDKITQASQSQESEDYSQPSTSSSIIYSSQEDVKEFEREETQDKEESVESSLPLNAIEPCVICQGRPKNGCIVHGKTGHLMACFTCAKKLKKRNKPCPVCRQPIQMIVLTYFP
# [17] = molecular target: Voltage-gated inwardly rectifying potassium channel KCNH2 (Homo sapiens, UniProt Q12809); experiment: hERG protection from proarrhythmic block, potency, dose response, cell-based, thallium flux (AID 2121); type: ADME
# Sequence of Voltage-gated inwardly rectifying potassium channel KCNH2 (Q12809 whole entry): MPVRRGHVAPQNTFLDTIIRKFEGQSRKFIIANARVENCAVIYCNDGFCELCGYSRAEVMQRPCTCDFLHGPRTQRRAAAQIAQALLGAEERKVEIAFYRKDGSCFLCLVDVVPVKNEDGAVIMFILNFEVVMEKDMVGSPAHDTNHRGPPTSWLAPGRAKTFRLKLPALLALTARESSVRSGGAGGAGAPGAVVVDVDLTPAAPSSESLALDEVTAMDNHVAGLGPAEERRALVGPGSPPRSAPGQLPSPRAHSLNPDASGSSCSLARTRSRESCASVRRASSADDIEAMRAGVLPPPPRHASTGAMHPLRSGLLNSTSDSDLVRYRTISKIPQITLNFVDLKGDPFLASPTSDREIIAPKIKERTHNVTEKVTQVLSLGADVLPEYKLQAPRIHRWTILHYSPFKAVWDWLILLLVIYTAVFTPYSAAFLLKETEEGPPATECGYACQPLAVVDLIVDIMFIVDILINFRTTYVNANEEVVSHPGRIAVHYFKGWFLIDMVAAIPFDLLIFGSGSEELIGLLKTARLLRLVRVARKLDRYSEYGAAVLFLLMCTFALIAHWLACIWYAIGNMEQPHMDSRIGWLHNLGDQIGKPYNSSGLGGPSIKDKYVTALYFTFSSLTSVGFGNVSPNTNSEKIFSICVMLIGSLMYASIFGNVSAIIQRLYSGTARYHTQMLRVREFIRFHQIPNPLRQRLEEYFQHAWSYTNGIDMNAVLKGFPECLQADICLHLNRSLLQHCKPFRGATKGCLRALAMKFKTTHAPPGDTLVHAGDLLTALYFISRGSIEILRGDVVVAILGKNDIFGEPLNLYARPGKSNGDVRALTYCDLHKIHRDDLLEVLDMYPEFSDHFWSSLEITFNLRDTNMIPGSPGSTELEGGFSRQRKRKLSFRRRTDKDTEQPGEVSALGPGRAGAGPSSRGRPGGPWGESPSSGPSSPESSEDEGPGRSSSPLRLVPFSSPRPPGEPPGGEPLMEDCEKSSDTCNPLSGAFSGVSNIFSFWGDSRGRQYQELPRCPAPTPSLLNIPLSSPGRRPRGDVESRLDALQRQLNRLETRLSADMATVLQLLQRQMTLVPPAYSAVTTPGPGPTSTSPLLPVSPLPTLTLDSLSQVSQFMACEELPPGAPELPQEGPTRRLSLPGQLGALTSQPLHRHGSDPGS
structure (smiles),measurement,setting,value
CC(C)NC[C@@H](O)c1ccc(O)c(O)c1,IC50,[1],> 50 µM (not active)
same,CC50,[2],> 40 µM (active)
same,IC50,[3],> 50 µM (not active)
Cn1c(-c2c(N)n(C3CCCC3)c3nc4ccccc4nc23)nc2ccccc21,EC50,[4],0.391 µM (active)
same,EC50,[5],2.96 µM (active)
same,IC50,[6],5.09 µM (active)
same,EC50,[7],> 30 µM (not active)
same,EC50,[8],0.905 µM (active)
Cc1cc(NC(=O)c2noc3c2CCCCC3)no1,EC50,[9],32.2 µM (active)
same,EC50,[10],< 0.1 µM (inconclusive)
same,EC50,[11],0.648 µM (active)
same,EC50,[12],5.07 µM (active)
same,EC50,[13],2.21 µM (active)
CCN1C(=O)c2cccc3c(N)ccc1c23,IC50,[3],> 50 µM (not active)
same,IC50,[14],44 µM (active)
CCC(=O)NC(=S)Nc1ccc(NC(=O)c2ccco2)c(Cl)c1,EC50,[15],4.47 µM (active)
Cc1nc(SCc2ccc(F)cc2)c([N+](=O)[O-])[nH]1,EC50,[16],7.19 µM (not active)
FC(F)(F)c1cnc2c(-c3cccs3)c(-c3nc[nH]n3)sc2c1,IC50,[6],13.9 µM (not active)
O=C(NC(=S)Nc1cc(C(F)(F)F)ccc1Cl)c1ccccc1,EC50,[17],0.24 µM (active)
C/C(=N/Nc1ccc(F)cc1)c1ccc(Cl)s1,EC50,[15],4.71 µM (active)
